How the values were obtained:
[1] = DRUGMATRIX: Calcium Channel Type L, Benzothiazepine radioligand binding (ligand: [3H] Diltiazem); assay type: cell membranes, Rattus norvegicus, Wistar, Brain, Membrane; details: Not Active = under 50% inhibition at 10 µM
[2] = biological target: 5-hydroxytryptamine receptor 6 (Homo sapiens, UniProt P50406); assay type: cell membranes, HeLa, Membrane; details: hela; also: in other assays of this panel Not Active means under 50% inhibition at 10 µM
[3] = biological target: Matrix metalloproteinase-9 (Homo sapiens, UniProt P14780); assay: biochemical; assay type: cell-based;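 also: inhibition of isolated MMP-9 enzyme activity toward a synthetic peptide substrate, from the DrugMatrix protease screening panel; in other assays of this panel Not Active means under 50% inhibition at 10 µM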
Sequence of Matrix metalloproteinase-9 (P14780 whole entry): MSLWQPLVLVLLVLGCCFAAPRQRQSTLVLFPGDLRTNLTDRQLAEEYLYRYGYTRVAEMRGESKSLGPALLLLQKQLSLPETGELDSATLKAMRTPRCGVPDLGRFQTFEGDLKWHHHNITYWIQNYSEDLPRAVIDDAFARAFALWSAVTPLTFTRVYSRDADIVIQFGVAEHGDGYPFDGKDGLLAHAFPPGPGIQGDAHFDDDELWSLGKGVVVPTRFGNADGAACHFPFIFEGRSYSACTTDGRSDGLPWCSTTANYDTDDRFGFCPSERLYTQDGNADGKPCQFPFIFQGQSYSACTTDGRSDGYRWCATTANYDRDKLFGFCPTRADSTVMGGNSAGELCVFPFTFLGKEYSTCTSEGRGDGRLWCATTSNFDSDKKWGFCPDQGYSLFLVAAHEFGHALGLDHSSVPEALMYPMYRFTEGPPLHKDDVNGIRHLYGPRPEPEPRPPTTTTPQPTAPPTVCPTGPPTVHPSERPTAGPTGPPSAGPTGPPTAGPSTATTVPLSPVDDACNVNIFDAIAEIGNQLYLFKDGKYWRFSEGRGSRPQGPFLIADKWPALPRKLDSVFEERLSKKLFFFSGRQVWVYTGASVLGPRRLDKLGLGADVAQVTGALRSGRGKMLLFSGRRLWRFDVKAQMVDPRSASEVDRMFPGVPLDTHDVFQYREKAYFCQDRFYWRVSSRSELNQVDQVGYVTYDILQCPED

Neutrophil elastase = biological target: T1, Neutrophil elastase (Homo sapiens, UniProt P08246); assay type: tissue-based;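 also: inhibition of neutrophil elastase enzyme activity, measured with a p-nitroanilide-linked peptide substrate; in other assays of this panel Not Active means under 50% inhibition at 10 µM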
T1 sequence (P08246 whole entry): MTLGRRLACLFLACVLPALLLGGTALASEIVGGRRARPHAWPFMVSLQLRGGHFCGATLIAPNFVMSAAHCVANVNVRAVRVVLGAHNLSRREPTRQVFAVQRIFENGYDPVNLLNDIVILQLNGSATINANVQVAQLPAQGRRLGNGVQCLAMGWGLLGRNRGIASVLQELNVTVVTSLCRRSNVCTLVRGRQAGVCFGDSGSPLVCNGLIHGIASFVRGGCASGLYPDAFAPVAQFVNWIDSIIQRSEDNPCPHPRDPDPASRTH

[4] = biological target: T2, C-C chemokine receptor type 4 (Homo sapiens, UniProt P51679); assay type: cell membranes, Membrane; details: chem-1; also: in other assays of this panel Not Active means under 50% inhibition at 10 µM
T2 sequence (P51679 whole entry): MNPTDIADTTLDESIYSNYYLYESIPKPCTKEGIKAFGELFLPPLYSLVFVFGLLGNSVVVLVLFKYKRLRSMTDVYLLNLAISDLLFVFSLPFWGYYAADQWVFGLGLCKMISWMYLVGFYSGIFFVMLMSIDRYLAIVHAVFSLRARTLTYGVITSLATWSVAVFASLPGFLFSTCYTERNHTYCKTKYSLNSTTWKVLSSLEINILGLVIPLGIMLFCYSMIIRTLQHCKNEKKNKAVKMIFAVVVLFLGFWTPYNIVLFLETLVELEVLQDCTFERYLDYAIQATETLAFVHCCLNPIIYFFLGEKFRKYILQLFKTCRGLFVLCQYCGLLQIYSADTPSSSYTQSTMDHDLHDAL

[5] = biological target: T3, Nitric oxide synthase, inducible (Mus musculus, UniProt P29477); design: species or system Escherichia coli
T3 sequence (P29477 whole entry): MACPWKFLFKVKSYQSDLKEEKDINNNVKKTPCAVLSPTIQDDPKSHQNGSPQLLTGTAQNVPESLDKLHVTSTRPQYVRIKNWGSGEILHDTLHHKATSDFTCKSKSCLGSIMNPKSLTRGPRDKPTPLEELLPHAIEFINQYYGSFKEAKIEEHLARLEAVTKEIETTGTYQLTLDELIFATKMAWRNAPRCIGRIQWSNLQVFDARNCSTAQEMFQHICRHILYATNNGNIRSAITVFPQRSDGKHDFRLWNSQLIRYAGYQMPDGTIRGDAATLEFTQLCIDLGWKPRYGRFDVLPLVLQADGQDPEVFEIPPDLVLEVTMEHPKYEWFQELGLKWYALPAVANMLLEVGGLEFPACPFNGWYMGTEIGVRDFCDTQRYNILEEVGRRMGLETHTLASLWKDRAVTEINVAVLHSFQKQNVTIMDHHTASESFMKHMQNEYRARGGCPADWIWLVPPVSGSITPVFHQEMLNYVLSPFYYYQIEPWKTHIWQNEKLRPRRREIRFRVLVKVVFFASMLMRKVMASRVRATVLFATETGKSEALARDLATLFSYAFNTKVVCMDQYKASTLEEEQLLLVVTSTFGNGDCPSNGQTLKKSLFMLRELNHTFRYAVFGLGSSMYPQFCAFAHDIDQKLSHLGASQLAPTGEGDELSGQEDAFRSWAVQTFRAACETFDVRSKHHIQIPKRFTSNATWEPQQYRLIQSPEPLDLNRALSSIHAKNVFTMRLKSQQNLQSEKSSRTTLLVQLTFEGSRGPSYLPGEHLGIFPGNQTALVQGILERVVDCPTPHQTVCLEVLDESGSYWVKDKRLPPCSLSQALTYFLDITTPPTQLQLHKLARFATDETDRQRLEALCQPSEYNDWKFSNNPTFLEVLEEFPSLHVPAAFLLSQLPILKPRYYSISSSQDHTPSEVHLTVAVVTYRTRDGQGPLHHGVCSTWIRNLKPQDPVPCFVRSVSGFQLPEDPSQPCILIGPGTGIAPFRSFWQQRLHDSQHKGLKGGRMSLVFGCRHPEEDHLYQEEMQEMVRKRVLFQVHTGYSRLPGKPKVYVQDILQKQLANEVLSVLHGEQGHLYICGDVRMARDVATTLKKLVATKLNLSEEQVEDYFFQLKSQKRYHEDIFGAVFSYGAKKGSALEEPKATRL

[6] = biological target: T4, C-X-C chemokine receptor type 1 (Homo sapiens, UniProt P25024); also: in other assays of this panel Not Active means under 50% inhibition at 10 µM
T4 sequence (P25024 whole entry): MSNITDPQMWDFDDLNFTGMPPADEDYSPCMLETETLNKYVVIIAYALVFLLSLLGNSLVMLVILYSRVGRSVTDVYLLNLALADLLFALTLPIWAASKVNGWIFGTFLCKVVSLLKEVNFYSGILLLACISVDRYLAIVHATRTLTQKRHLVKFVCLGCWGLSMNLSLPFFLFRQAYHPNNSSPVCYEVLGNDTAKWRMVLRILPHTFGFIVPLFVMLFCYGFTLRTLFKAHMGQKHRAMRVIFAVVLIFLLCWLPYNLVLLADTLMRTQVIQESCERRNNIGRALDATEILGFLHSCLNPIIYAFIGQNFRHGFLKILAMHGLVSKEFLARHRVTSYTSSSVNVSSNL

[7] = biological target: T5, Neuropeptide Y receptor type 2 (Homo sapiens, UniProt P49146); assay type: cell membranes, Membrane; details: kan-ts; also: in other assays of this panel Not Active means under 50% inhibition at 10 µM
T5 sequence (P49146 whole entry): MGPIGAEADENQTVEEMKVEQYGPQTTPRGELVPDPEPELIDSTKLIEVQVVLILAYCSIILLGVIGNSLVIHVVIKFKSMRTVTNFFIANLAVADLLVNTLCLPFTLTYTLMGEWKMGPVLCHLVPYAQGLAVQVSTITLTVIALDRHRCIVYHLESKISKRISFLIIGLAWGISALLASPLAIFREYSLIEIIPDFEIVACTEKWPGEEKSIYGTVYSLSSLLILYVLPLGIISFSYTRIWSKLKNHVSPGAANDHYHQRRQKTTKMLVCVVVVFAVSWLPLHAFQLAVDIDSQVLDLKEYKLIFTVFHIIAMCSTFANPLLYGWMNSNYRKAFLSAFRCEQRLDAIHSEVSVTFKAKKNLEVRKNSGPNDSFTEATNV

Sequence of 5-hydroxytryptamine receptor 6 (P50406 whole entry): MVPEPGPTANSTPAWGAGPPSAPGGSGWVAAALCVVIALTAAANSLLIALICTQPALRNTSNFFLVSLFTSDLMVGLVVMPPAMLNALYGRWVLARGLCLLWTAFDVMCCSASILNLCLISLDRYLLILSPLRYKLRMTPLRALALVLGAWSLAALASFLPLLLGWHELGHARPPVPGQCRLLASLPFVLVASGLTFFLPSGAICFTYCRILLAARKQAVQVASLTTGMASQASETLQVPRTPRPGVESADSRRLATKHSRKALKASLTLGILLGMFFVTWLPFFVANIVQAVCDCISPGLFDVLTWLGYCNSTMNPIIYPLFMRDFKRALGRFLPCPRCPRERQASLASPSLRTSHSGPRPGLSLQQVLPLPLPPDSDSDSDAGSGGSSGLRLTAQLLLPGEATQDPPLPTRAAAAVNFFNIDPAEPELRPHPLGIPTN

Structure (SMILES) | IC50 [1] | Ki [1] | IC50 [2] | IC50 [3] | IC50 (Neutrophil elastase) | IC50 [4] | IC50 [5] | IC50 [6] | IC50 [7] | IC50 ([1]; read-out: IC50) [µM] | Ki ([1]; read-out: Ki) [µM]
Cc1ccc(S(=O)(=O)NC(=O)NN2CC3CCCC3C2)cc1 (configuration not stated) [GLICLAZIDE] | Not Active | Not Active | Not Active | Not Active | Not Active | Not Active | Not Active | Not Active | Not Active |  | 
COc1cccc2c1C(=O)c1c(O)c3c(c(O)c1C2=O)C[C@@](O)(C(=O)CO)C[C@@H]3O[C@H]1C[C@H](N)[C@H](O)[C@H](C)O1 [DOXORUBICIN] | Not Active | Not Active | Not Active | Not Active | Not Active | Not Active | Not Active | Not Active | Not Active |  | 
Cn1c(=O)c2c(ncn2CC2OCCO2)n(C)c1=O [DOXOFYLLINE] | Not Active | Not Active | Not Active | Not Active | Not Active | Not Active | Not Active | Not Active | Not Active |  | 
Cc1cc2cc3c(C)cc(=O)oc3c(C)c2o1 [TRIOXSALEN] | Not Active | Not Active | Not Active | Not Active | Not Active | Not Active | Not Active | Not Active | Not Active |  | 
Cc1ncc([N+](=O)[O-])n1CCO [METRONIDAZOLE] | Not Active | Not Active | Not Active | Not Active | Not Active | Not Active | Not Active | Not Active | Not Active |  | 
OC(CCN1CCCCC1)(c1ccccc1)C1CCCCC1 (configuration not stated) [TRIHEXYPHENIDYL] |  |  | Not Active | Not Active | Not Active | Not Active | Not Active | Not Active | Not Active | 4.81 | 4.28
O=C(C1CCCCC1)N1CC(=O)N2CCc3ccccc3C2C1 (configuration not stated) [PRAZIQUANTEL] | Not Active | Not Active | Not Active | Not Active | Not Active | Not Active | Not Active | Not Active | Not Active |  | 
C=C1CC[C@H](O)C/C1=C/C=C1\CCC[C@]2(C)[C@@H]([C@H](C)CCCC(C)C)CC[C@@H]12 [CHOLECALCIFEROL] | Not Active | Not Active | Not Active | Not Active | Not Active | Not Active | Not Active | Not Active | Not Active |  | 
CC(=O)OCC(=O)[C@@]1(O)CC[C@H]2[C@@H]3CCC4=CC(=O)CC[C@]4(C)[C@H]3C(=O)C[C@@]21C [CORTISONE ACETATE] | Not Active | Not Active | Not Active | Not Active | Not Active | Not Active | Not Active | Not Active | Not Active |  | 
COc1ccc2[nH]c([S+]([O-])Cc3ncc(C)c(OC)c3C)nc2c1 (configuration not stated) [OMEPRAZOLE] | Not Active | Not Active | Not Active | Not Active | Not Active | Not Active | Not Active | Not Active | Not Active |  | 
C[C@@]12C(=O)OC(=O)[C@]1(C)[C@H]1CC[C@@H]2O1 [CANTHARIDIN] | Not Active | Not Active | Not Active | Not Active | Not Active | Not Active | Not Active | Not Active | Not Active |  | 
Nc1c(CC(=O)O)cccc1C(=O)c1ccc(Br)cc1 [BROMFENAC] | Not Active | Not Active | Not Active | Not Active | Not Active | Not Active | Not Active | Not Active | Not Active |  | 
C[C@H]1O[C@@H](O[C@H]2[C@@H](O)C[C@H](O[C@H]3[C@@H](O)C[C@H](O[C@H]4CC[C@@]5(C)[C@H](CC[C@@H]6[C@@H]5CC[C@]5(C)[C@@H](C7=CC(=O)OC7)CC[C@]65O)C4)O[C@@H]3C)O[C@@H]2C)C[C@H](O)[C@@H]1O [DIGITOXIN] | Not Active | Not Active | Not Active | Not Active | Not Active | Not Active | Not Active | Not Active | Not Active |  | 
C[N+](C)(C)CCO.[Cl-] [CHOLINE CHLORIDE] | Not Active | Not Active | Not Active | Not Active | Not Active | Not Active | Not Active | Not Active | Not Active |  | 
CN(C)c1ccc(C(=C2C=CC(=[N+](C)C)C=C2)c2ccc(N(C)C)cc2)cc1.[Cl-] [GENTIAN VIOLET] | Not Active | Not Active | Not Active | Not Active | Not Active | Not Active | Not Active | Not Active | Not Active |  | 
O=S(=O)([O-])CCS.[Na+] [MESNA] | Not Active | Not Active | Not Active | Not Active | Not Active | Not Active | Not Active | Not Active | Not Active |  | 
O=C(O)Cc1ccccc1Nc1c(Cl)cccc1Cl [DICLOFENAC] | Not Active | Not Active | Not Active | Not Active | Not Active | Not Active | Not Active | Not Active | Not Active |  | 
COc1ccccc1C(=O)N1CCC(Cc2ccccc2)CC1 | Not Active | Not Active | Not Active | Not Active | Not Active | Not Active | Not Active | Not Active | Not Active |  | 

From ChEMBL document CHEMBL1909046, “DrugMatrix in vitro pharmacology data”
